Laboratory results as given in ChEMBL document CHEMBL3745645, “Synthesis, in vitro antitumor activity, dihydrofolate reductase inhibition, DNA intercalation and structure-activity relationship studies of 1,3,5-triazine analogues” (Bioorg Med Chem Lett, 2016).
Active and inactive are the calls of the source. The rule behind the calls is not given here.

What was measured:
[1] = Cytotoxicity against human DU145 cells after 48 hrs by SRB assay; format: functional; settings: DU-145, 48 h, read-out: LC50 (the source's name)
[2] = Cytotoxicity against human HOP92 cells at 10 uM after 48 hrs by SRB assay; format: functional; settings: HOP-92, 48 h, read-out: GI
[3] = Cytotoxicity against human UO31 cells at 10 uM after 48 hrs by SRB assay; format: functional; settings: UO-31, 48 h, read-out: GI
SK-MEL-28 = assay: Cytotoxicity against human SK-MEL-28 cells at 10 uM after 48 hrs by SRB assay; format: functional; settings: SK-MEL-28, 48 h, read-out: GI
[4] = Cytotoxicity against human TK10 cells at 10 uM after 48 hrs by SRB assay; format: functional; settings: TK-10, 48 h, read-out: GI
MCF7 = assay: Cytotoxicity against human MCF7 cells after 48 hrs by SRB assay; format: functional; settings: MCF7, 48 h, pooled result: one value given for 6 cell lines, strains, targets or settings
[5] = Cytotoxicity against human BT549 cells at 10 uM after 48 hrs by SRB assay; format: functional; settings: BT-549, 48 h, read-out: GI
[6] = Cytotoxicity against human LOXIMVI cells at 10 uM after 48 hrs by SRB assay; format: functional; settings: LOX IMVI, read-out: GI
A549 [7] = assay: Cytotoxicity against human A549 cells after 48 hrs by SRB assay; format: functional; settings: A549, 48 h, pooled result: one value given for 8 cell lines, strains, targets or settings
[8] = Cytotoxicity against human NCI-ADR-RES cells at 10 uM after 48 hrs by SRB assay; format: functional; settings: read-out: GI
MDA-MB-435 = assay: Cytotoxicity against human MDA-MB-435 cells at 10 uM after 48 hrs by SRB assay; format: functional; settings: MDA-MB-435, 48 h, read-out: GI
[9] = Cytotoxicity against human DU145 cells at 10 uM after 48 hrs by SRB assay; format: functional; settings: DU-145, 48 h, read-out: GI
Dihydrofolate reductase = target: T1, Dihydrofolate reductase (Homo sapiens, UniProt P00374); assay: Inhibition of human recombinant DHFR expressed in Escherichia coli by spectrophotometric analysis
T1 sequence (P00374 whole entry): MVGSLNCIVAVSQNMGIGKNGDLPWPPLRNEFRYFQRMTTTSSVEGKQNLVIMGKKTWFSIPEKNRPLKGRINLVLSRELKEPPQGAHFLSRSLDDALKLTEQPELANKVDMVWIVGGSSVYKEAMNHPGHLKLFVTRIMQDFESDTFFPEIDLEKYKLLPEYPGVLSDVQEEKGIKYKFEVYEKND

[10] = Cytotoxicity against human SKOV3 cells at 10 uM after 48 hrs by SRB assay; format: functional; settings: SK-OV-3, 48 h, read-out: GI
[11] = (§1) Cytotoxicity against human HCC2998 cells at 10 uM after 48 hrs by SRB assay; format: functional; settings: HCC 2998, 48 h, read-out: GI
A549 [12] = assay: Cytotoxicity against human A549 cells at 10 uM after 48 hrs by SRB assay; format: functional; settings: A549, 48 h, read-out: GI
RPMI-8226 = assay: (§2) Cytotoxicity against human RPMI8226 cells at 10 uM after 48 hrs by SRB assay; format: functional
NCI-H460 = assay: Cytotoxicity against human NCI-H460 cells at 10 uM after 48 hrs by SRB assay; format: functional; settings: NCI-H460, 48 h, read-out: GI
[13] = Cytotoxicity against human MOLT4 cells after 48 hrs by SRB assay; format: functional; settings: MOLT-4, 48 h, read-out: LC50 (the source's name)
MDA-MB-231 = assay: Cytotoxicity against human MDA-MB-231 cells at 10 uM after 48 hrs by SRB assay; format: functional; settings: MDA-MB-231, 48 h, read-out: GI
[14] = Cytotoxicity against human SF295 cells at 10 uM after 48 hrs by SRB assay; format: functional; settings: SF-295, 48 h, read-out: GI
[15] = Cytotoxicity against human UACC257 cells at 10 uM after 48 hrs by SRB assay; format: functional; settings: UACC-257, 48 h, read-out: GI
[16] = Cytotoxicity against human SNB75 cells at 10 uM after 48 hrs by SRB assay; format: functional; settings: SNB-75, 48 h, read-out: GI
[17] = Cytotoxicity against human IGROV1 cells at 10 uM after 48 hrs by SRB assay; format: functional; settings: IGROV-1, 48 h, read-out: GI
[18] = Cytotoxicity against human PC3 cells at 10 uM after 48 hrs by SRB assay; format: functional; settings: PC-3, 48 h, read-out: GI
SK-MEL-2 = assay: Cytotoxicity against human SK-MEL-2 cells at 10 uM after 48 hrs by SRB assay; format: functional; settings: SK-MEL-2, 48 h, read-out: GI
[19] = Cytotoxicity against human UACC62 cells at 10 uM after 48 hrs by SRB assay; format: functional; settings: UACC-62, 48 h, read-out: GI
KM12 = assay: Cytotoxicity against human KM12 cells at 10 uM after 48 hrs by SRB assay; format: functional; settings: KM12, 48 h, read-out: GI
M14 = assay: Cytotoxicity against human M14 cells at 10 uM after 48 hrs by SRB assay; format: functional; settings: M14, 48 h, read-out: GI
HT-29 = assay: Cytotoxicity against human HT-29 cells at 10 uM after 48 hrs by SRB assay; format: functional; settings: HT-29, 48 h, read-out: GI
[20] = (§3) Cytotoxicity against human HCT15 cells at 10 uM after 48 hrs by SRB assay; format: functional; settings: HCT-15, 48 h, read-out: GI
786-0 = assay: Cytotoxicity against human 786-0 cells at 10 uM after 48 hrs by SRB assay; format: functional; settings: 786-0, 48 h, read-out: GI
K562 = assay: Cytotoxicity against human K562 cells at 10 uM after 48 hrs by SRB assay; format: functional; settings: K562, 48 h, read-out: GI
[21] = (§4) Cytotoxicity against human OVCAR4 cells at 10 uM after 48 hrs by SRB assay; format: functional; settings: OVCAR-4, 48 h, read-out: GI
[22] = Cytotoxicity against human SNB19 cells at 10 uM after 48 hrs by SRB assay; format: functional; settings: SNB-19, 48 h, read-out: GI
HL-60(TB) = assay: Cytotoxicity against human HL-60(TB) cells at 10 uM after 48 hrs by SRB assay; format: functional
NCI-H23 = assay: Cytotoxicity against human NCI-H23 cells at 10 uM after 48 hrs by SRB assay; format: functional; settings: NCI-H23, 48 h, read-out: GI
HCC 2998 = assay: as §1; format: functional
[23] = as §2; format: functional; settings: RPMI-8226, 48 h, read-out: GI
HCT-15 = assay: as §3; format: functional
OVCAR-4 = assay: as §4; format: functional

Row | SMILES | inhibition of growth at 10 µM [2] [%] | inhibition of growth at 10 µM [3] [%] | inhibition of growth at 10 µM [4] [%] | inhibition of growth at 10 µM [5] [%] | inhibition of growth at 10 µM [6] [%] | inhibition of growth at 10 µM (MDA-MB-435) [%] | inhibition of growth at 10 µM [9] [%] | inhibition of growth at 10 µM [10] [%] | inhibition of growth at 10 µM (A549 [12]) [%] | inhibition of growth at 10 µM (NCI-H460) [%] | inhibition of growth at 10 µM (MDA-MB-231) [%] | inhibition of growth at 10 µM [14] [%] | inhibition of growth at 10 µM [15] [%] | inhibition of growth at 10 µM [16] [%] | inhibition of growth at 10 µM [17] [%] | inhibition of growth at 10 µM (SK-MEL-2) [%] | inhibition of growth at 10 µM (KM12) [%] | inhibition of growth at 10 µM (M14) [%] | inhibition of growth at 10 µM (HT-29) [%] | inhibition of growth at 10 µM (786-0) [%] | also measured
1 | Cc1nc2cc(Nc3nc(Nc4ccc(F)cc4)nc(-c4cccs4)n3)ccc2n1Cc1ccccc1 | 78 | 63.5 | 37.3 | 30.5 | 35.1 | 56.2 | 24.8 | 4.89 | 56.9 | 60.4 | 30.9 | 48.1 | 42.5 | 47.8 | 51.7 | 27.1 | 74.8 | 46.9 | 79.5 | 62.5 | CC50 [1]: > 100 µM; inhibition of growth at 10 µM (SK-MEL-28): 25.7%; GI50 (MCF7): 5.24 µM; LC50 (concentration killing 50% of cells) (MCF7): 79.2 µM; TGI (MCF7): 21.9 µM; GI50 (A549 [7]): 7.62 µM; LC50 (A549 [7]): 55.4 µM; TGI (A549 [7]): 33.1 µM; inhibition of growth at 10 µM [8]: 42.7%; IC50 (Dihydrofolate reductase): 0.72 µM; inhibition of growth at 10 µM [11]: 27.9%; growth inhibition (GI) (RPMI-8226): Active; CC50 [13]: > 100 µM; inhibition of growth at 10 µM [18]: 70.6%; inhibition of growth at 10 µM [19]: 38.5%; inhibition of growth at 10 µM [20]: 69.7%; inhibition of growth at 10 µM (K562): 56.9%; inhibition of growth at 10 µM [21]: 49%; inhibition of growth at 10 µM [22]: 33.3%
2 | COc1ccc(-c2nc(Nc3ccc(F)cc3)nc(Nc3ccc4c(c3)nc(C)n4Cc3ccccc3)n2)cc1 | 60.3 | 70.7 | 25.1 | 29.3 | 61.1 | 65.9 | 45.3 | 23.2 | 68 | 69.7 | 68.8 | 51 | 56.2 | 32 | 63.6 | 51.8 | 74 | 61.1 | 91.1 | 53.3 | CC50 [1]: > 100 µM; inhibition of growth at 10 µM (SK-MEL-28): 43.5%; GI50 (MCF7): 3.6 µM; LC50 (concentration killing 50% of cells) (MCF7): > 100 µM; TGI (MCF7): 23.4 µM; GI50 (A549 [7]): 5.14 µM; LC50 (A549 [7]): > 100 µM; TGI (A549 [7]): 20.9 µM; inhibition of growth at 10 µM [8]: 73.4%; IC50 (Dihydrofolate reductase): 0.32 µM; growth inhibition (GI) (HL-60(TB)): Active; inhibition of growth at 10 µM [11]: 54.5%; growth inhibition (GI) (RPMI-8226): Active; CC50 [13]: > 100 µM; inhibition of growth at 10 µM [20]: 66.6%; inhibition of growth at 10 µM (K562): 83.4%; inhibition of growth at 10 µM [21]: 57.4%; inhibition of growth at 10 µM [22]: 39.3%
3 | Cc1nc2ccc(Nc3nc(NCCN)nc(Nc4ccc(F)cc4)n3)cc2n1Cc1ccccc1 | 56.8 | 13.7 | 26.1 | 17 | 30 | 9.38 | 8.56 | 13.2 | 13.2 | 21.8 | 42.9 | 11.6 | 15.9 | 20 | 0.38 | 19.9 | 26.8 | 16.4 | 55.5 | 20.5 | inhibition of growth at 10 µM (NCI-H23): 10.4%; growth inhibition (GI) (HCC 2998): inactive; inhibition of growth at 10 µM [23]: 46.2%; inhibition of growth at 10 µM [18]: 26.9%; inhibition of growth at 10 µM [19]: 9.33%; growth inhibition (GI) (HCT-15): inactive; inhibition of growth at 10 µM (K562): 61.3%; growth inhibition (GI) (OVCAR-4): inactive; inhibition of growth at 10 µM [22]: 10.1%
